Data taken from article PMC4209917 (Molecular cancer therapeutics, 2014).

Assays:
[1] = biological target: T1, Choline kinase alpha (ChoK) (Homo sapiens, UniProt P35790); test: […]-choline phosphorylation in MDA-MB-231 cells; format: cell-based
[2] = biological target: T1, Choline kinase alpha (ChoK); test: […]-choline phosphorylation in intact MDA-MB-231 cells, […] h; format: cell-based

T1 sequence (P35790 whole entry): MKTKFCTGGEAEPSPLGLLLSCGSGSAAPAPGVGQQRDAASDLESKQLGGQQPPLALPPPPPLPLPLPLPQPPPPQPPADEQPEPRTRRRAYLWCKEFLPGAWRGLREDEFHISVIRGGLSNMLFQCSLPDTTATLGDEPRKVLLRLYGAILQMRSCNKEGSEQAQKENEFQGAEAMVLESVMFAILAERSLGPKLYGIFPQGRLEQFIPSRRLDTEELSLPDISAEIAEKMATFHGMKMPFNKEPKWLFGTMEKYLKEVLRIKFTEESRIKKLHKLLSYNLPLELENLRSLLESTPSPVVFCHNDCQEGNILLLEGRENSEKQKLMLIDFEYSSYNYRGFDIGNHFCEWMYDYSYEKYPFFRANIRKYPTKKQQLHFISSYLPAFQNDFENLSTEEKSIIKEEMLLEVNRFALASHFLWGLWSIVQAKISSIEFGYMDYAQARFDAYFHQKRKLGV

Row | IC50 [1] [µM] | IC50 [2] [µM] | SMILES
1 | 4.6 |  | CC1(C)C(/C=C/C=C/C=C/C=C2\N(CCO)c3ccccc3C2(C)C)=[N+](CCO)c2ccccc21 [JAS239, 1-(2-hydroxyethyl)-2-((1E,3E,5E)-7-((Z/E)-1-(2-hydroxyethyl)-3,3-dimethylindolin-2-ylidene)hepta-1,3,5-trien-1-yl)-3,3-dimethyl-3H-indol-1-ium chloride]
2 |  | 2.3 | CN(C)c1cc[n+](Cc2ccc(CCCCc3ccc(C[n+]4ccc(N(C)C)cc4)cc3)cc2)cc1 [MN58b, 1,1′-((butane-1,4-diylbis(4,1-phenylene))bis(methylene))bis(4-(dimethylamino)pyridin-1-ium) bromide]
